A short description of data set [1]: Cytotoxicity against LPS-induced mouse BV-2 cells assessed as cell viability at 20 uM incubated for 24 hrs by MTT assay relative to control. The data set is classed as toxicity, cell-based. As to conditions: LPS-induced BV-2 cells, read-out: Activity. On the technique in general: Formazan colour is commonly taken as a measure of viable cells.
In data set [2] the test system is BV-2. As to the kind of experiment: Inhibition of LPS-induced NO release in mouse BV-2 cells at 20 uM incubated for 24 hrs by Griess assay relative to control. The data set is classed as functional. In general terms: Griess reagent forms a coloured azo dye with nitrite.
Data set [3] concerns RAW264.7. As to the kind of experiment: Inhibition of LPS-induced NO release in mouse RAW264.7 cells at 15 uM incubated for 24 hrs by Griess assay relative to control. Type of data set: functional.
Data set [4] deals with BV-2. Description: Inhibition of LPS-induced NO release in mouse BV-2 cells up to 100 uM incubated for 24 hrs by Griess assay. The data set is classed as functional, cell-based.
Data set [5] concerns BV-2. As to the kind of experiment: Inhibition of LPS-induced NO release in mouse BV-2 cells incubated for 24 hrs by Griess assay. The note with it: for IC50: BV-2, 24 h. Type of data set: functional, cell-based.
The subject of data set [6] is BV-2. Description: Anti-inflammatory activity against LPS-induced mouse BV-2 cells assessed as reduction in iNOS protein expression pre-incubated for 1 hrs followed by LPS addition and measured after 18 hrs by Western blot analysis. Type of data set: functional, cell-based. The note with it: dose 5-20 µM, time 19.0 hrs. (In general: Immunoblotting shows a protein as a band on a membrane.)

Data set [7] has as its system BV-2. Description: Anti-inflammatory activity against LPS-induced mouse BV-2 cells assessed as reduction in TNF-alpha mRNA expression pre-incubated for 1 hrs followed by LPS addition and measured after 6 hrs by RT-PCR method. The data set is classed as functional, cell-based. As to conditions: dose 5-20 µM, time 7.0 hrs.
The test system of data set [8] is BV-2. As to the kind of experiment: Anti-inflammatory activity against LPS-induced mouse BV-2 cells assessed as reduction in IL-6 mRNA expression pre-incubated for 1 hrs followed by LPS addition and measured after 6 hrs by RT-PCR method. As to conditions: dose 5-20 µM, time 7.0 hrs. Type of data set: functional, cell-based.
For data set [9], the system named is BV-2. As to the kind of experiment: Anti-inflammatory activity against LPS-induced mouse BV-2 cells assessed as reduction in COX-2 mRNA expression pre-incubated for 1 hrs followed by LPS addition and measured after 6 hrs by RT-PCR method. The data set is classed as functional, cell-based. The note with it: dose 5-20 µM, time 7.0 hrs.
Data set [10] relates to BV-2. As to the kind of experiment: Inhibition of LPS-induced NFkappaB activation in mouse BV2 cells assessed as reduction in IkappaBalpha phosphorylated protein expression level pre-incubated for 30 mins followed by LPS addition by Western blot analysis. The note with it: dose 5-20 µM. The data set is classed as cell-based.
For data set [11], the system named is BV-2. Description: Anti-inflammatory activity against LPS-induced mouse BV-2 cells assessed as reduction in IL-1beta mRNA expression pre-incubated for 1 hrs followed by LPS addition and measured after 6 hrs by RT-PCR method. The note with it: dose 5-20 µM, time 7.0 hrs. Type of data set: functional, cell-based.
In data set [12] the test system is BV-2. Description: Cytotoxicity against LPS-induced mouse BV-2 cells assessed as cell viability at 2.5 to 20 uM incubated for 24 hrs by MTT assay. Type of data set: toxicity, cell-based. As to conditions: bv-2, 24 h, dose 2.5-20 µM.
Data set [13] has as its system BV-2. As to the kind of experiment: Anti-inflammatory activity against LPS-induced mouse BV-2 cells assessed as reduction in COX-2 protein expression pre-incubated for 1 hrs followed by LPS addition and measured after 18 hrs by Western blot analysis. As to conditions: dose 5-20 µM, time 19.0 hrs. The data set is classed as functional, cell-based.
Data set [14] deals with BV-2. As to the kind of experiment: Inhibition of LPS-induced NFkappaB activation in mouse BV2 cells assessed as reduction in p65 phosphorylated protein expression level pre-incubated for 30 mins followed by LPS addition by Western blot analysis. Type of data set: cell-based. The note with it: dose 5-20 µM.
Data set [15] deals with c-Jun N-terminal kinase (Mus musculus) (UniProt Q91Y86+Q9WTU6+Q61831). As to the kind of experiment: Inhibition of LPS-induced JNK phosphorylation in mouse BV-2 cells pretreated for 30 mins followed by LPS stimulation by Western blot analysis. The data set is classed as cell-based. As to conditions: dose 5-20 µM.
In data set [16] the test system is BV-2. Description: Anti-inflammatory activity against LPS-induced mouse BV-2 cells assessed as reduction in iNOS mRNA expression pre-incubated for 1 hrs followed by LPS addition and measured after 6 hrs by RT-PCR method. The data set is classed as functional, cell-based. The note with it: dose 5-20 µM, time 7.0 hrs.
Data set [17] is described as follows: Inhibition of LPS-induced ERK phosphorylation in mouse BV-2 cells pretreated for 30 mins followed by LPS stimulation by Western blot analysis. The data set is classed as cell-based. As to conditions: dose 5-20 µM.
Data set [18] addresses MAP kinase p38 (Mus musculus) (UniProt P47811+O08911+Q9WUI1+Q9Z1B7). Description: Inhibition of LPS-induced p38 phosphorylation in mouse BV-2 cells pretreated for 30 mins followed by LPS stimulation by Western blot analysis. Type of data set: cell-based. The note with it: dose 5-20 µM.

We go through 22 compounds from ChEMBL document CHEMBL5365411, “Synthesis of 1-(4-(dimethylamino)phenyl)-3,4-diphenyl-1H-pyrrole-2,5-dione analogues and their anti-inflammatory activities in lipopolysaccharide-induced BV2 cells” (Bioorg Med Chem Lett, 2023).

Activity calls are given as the source filed them. The rule behind the calls is not given here.

Sequence of c-Jun N-terminal kinase (Mus musculus) (Q61831 whole entry, looked up): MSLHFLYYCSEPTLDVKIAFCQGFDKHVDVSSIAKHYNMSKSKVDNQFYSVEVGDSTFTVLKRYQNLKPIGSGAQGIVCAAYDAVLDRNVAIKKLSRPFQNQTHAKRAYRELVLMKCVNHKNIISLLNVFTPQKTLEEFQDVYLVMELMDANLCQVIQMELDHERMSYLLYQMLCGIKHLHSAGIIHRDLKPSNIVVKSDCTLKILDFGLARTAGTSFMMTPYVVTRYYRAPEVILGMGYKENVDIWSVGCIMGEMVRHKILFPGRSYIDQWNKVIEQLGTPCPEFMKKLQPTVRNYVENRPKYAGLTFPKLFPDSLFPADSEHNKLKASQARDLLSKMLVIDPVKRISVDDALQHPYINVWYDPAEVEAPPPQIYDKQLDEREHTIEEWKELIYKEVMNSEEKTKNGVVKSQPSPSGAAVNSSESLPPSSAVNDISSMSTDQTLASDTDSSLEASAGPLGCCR
Sequence of c-Jun N-terminal kinase (Mus musculus) (Q91Y86 whole entry, looked up): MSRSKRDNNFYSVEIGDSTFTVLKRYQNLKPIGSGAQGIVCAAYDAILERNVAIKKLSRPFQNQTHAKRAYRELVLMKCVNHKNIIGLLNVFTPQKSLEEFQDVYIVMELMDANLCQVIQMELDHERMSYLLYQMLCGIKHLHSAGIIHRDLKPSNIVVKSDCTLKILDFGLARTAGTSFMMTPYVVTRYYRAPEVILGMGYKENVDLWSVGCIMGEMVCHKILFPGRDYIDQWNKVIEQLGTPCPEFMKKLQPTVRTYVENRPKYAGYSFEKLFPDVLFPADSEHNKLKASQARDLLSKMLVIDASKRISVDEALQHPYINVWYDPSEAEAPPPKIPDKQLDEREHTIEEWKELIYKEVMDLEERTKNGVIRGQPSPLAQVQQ
Sequence of c-Jun N-terminal kinase (Mus musculus) (Q9WTU6 whole entry, looked up): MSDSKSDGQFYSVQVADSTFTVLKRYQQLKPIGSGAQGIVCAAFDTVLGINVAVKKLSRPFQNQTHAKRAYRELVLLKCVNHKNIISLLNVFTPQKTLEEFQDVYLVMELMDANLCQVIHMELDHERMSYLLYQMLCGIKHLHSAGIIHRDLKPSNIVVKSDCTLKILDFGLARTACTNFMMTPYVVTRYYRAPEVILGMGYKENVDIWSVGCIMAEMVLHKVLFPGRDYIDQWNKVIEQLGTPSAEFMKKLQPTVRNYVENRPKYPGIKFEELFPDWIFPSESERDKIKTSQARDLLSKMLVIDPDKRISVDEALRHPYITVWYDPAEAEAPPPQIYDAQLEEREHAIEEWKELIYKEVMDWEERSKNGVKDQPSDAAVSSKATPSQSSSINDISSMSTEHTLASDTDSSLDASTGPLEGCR

The inhibition is the percentage by which the read-out fell short of the control. Regarding `CC(C)(C)c1ccc(N2C(=O)C(c3ccccc3)=C(c3ccccc3)C2=O)cc1`, the viability at 24 h, 20 µM in data set [1] amounted to 100%. Also, the inhibition at 20 µM in data set [2] came to 18.4%.
Turning to `O=C1C(c2ccccc2)=C(c2ccccc2)C(=O)N1c1ccc(Br)cc1`, the viability at 24 h, 20 µM in [1] amounted to 95.7%. Also, the inhibition at 20 µM in data set [2] came out at 11.5%.
`O=C1C(c2ccccc2)=C(c2ccccc2)C(=O)N1c1ccc(OC(F)(F)F)cc1`: the viability at 24 h, 20 µM in [1] is 94.5%. This compound showed an inhibition at 20 µM in [2] of 12.9%.
As for `O=C1C(c2ccccc2)=C(c2ccccc2)C(=O)N1c1ccc(Cl)cc1`, the viability at 24 h, 20 µM in data set [1] was determined as 93.9%. Besides, 20 µM produced 16% inhibition in data set [2].
The corresponding values for `O=C1C(c2ccccc2)=C(c2ccccc2)C(=O)N1c1ccc(N2CCCCC2)cc1` are 87.4% and 5.8%.
For `O=C1C(c2ccccc2)=C(c2ccccc2)C(=O)N1c1ccc(F)cc1`, the viability at 24 h, 20 µM in [1] was found to be 100%. In [2], this compound came in with an inhibition at 20 µM of 10.3%.
On to `O=C1CCC(N2C(=O)c3ccccc3C2=O)C(=O)N1` (centres undefined) [THALIDOMIDE], for which the viability at 24 h, 20 µM in data set [1] turned out to be 93.5%. The inhibition at 15 µM in data set [3] stood at 15%. The inhibition entry in data set [4] is “inactive”. The compound also gave an inhibition at 20 µM in data set [2] of 0%.
Regarding `Cc1ccc(N2C(=O)C(c3ccccc3)=C(c3ccccc3)C2=O)cc1`, the viability at 24 h, 20 µM in [1] is 97.8%. The inhibition at 20 µM in [2] stood at 25.8%.
On the same counts, the results for `O=C1C(c2ccccc2)=C(c2ccccc2)C(=O)N1CCc1ccccc1` are 100% and 14.2%.
The corresponding values for `Nc1ccc(N2C(=O)C(c3ccccc3)=C(c3ccccc3)C2=O)cc1` are 90.2% and 27.6%.
What is called IC50 is the concentration needed to halve the response being measured. Read a low IC50 as greater potency in that assay. In the case of `CN(C)c1ccccc1N1C(=O)C(c2ccccc2)=C(c2ccccc2)C1=O`, in data set [1], the viability at 24 h, 20 µM amounted to 100%. Also, the inhibition at 20 µM in [2] came out at 81.6%. The compound also displayed a concentration for half-maximal inhibition (IC50) in [5] of 13.3 µM.
As for `O=C1C(c2ccccc2)=C(c2ccccc2)C(=O)N1c1ccc(I)cc1`, the viability at 24 h, 20 µM in [1] came out at 100%. Also, testing at 20 µM in [2] gave an inhibition of 22.5%.
In the case of `O=C1CCC(N2C(=O)C(c3ccccc3)=C(c3ccccc3)C2=O)C(=O)N1` (centres undefined), the viability at 24 h, 20 µM in data set [1] stood at 98.5%. Also, the inhibition at 20 µM in data set [2] was determined as 10.2%. This compound came in with an IC50 in data set [5] of over 50 µM.
On the same counts, the results for `CN(C)c1cccc(N2C(=O)C(c3ccccc3)=C(c3ccccc3)C2=O)c1` are 90.2%, 82.1% and 12.7 µM.
For `CN(C)c1ccc(N2C(=O)C(c3ccccc3)=C(c3ccccc3)C2=O)cc1`, in data set [1], the viability at 24 h, 20 µM stood at 98.9%. The Activity result in data set [6] was “Dose-Dependent Effect”; in data set [7] it was “Dose-Dependent Effect”; in data set [8], “Dose-Dependent Effect”; in data set [9], “Dose-Dependent Effect”; in data set [11], “Dose-Dependent Effect”; in data set [12], “Non-Toxic”. Also, the Activity entry in [13] and in [16] was “Dose-Dependent Effect” in each case. The inhibition entry in data set [10], in data set [14], in data set [5] and in [18] was “Dose-Dependent Effect” each time. The same compound came in with an inhibition at 20 µM in data set [2] of 83.5%. Besides, the IC50 in [5] amounted to 7.1 µM. Moreover, the inhibition entry in data set [15] and in data set [17] was “inactive” each time.
For the compound `O=C1C(c2ccccc2)=C(c2ccccc2)C(=O)N1c1ccccc1`, the viability at 24 h, 20 µM in data set [1] was found to be 93.3%. Moreover, at 20 µM the inhibition in data set [2] was 22.5%.
Regarding `N#Cc1ccc(N2C(=O)C(c3ccccc3)=C(c3ccccc3)C2=O)cc1`, in data set [1], the viability at 24 h, 20 µM was 80%. In data set [2], this compound had an inhibition at 20 µM of 6.9%.
On the same counts, the results for `COc1ccc(N2C(=O)C(c3ccccc3)=C(c3ccccc3)C2=O)cc1` are 97.2% and 32.3%.
For `O=C1C(c2ccccc2)=C(c2ccccc2)C(=O)N1c1ccc([N+](=O)[O-])cc1`, the viability at 24 h, 20 µM in [1] turned out to be 99.4%. In data set [2], this compound gave an inhibition at 20 µM of 19.3%.
The corresponding values for `O=C1C(c2ccccc2)=C(c2ccccc2)C(=O)N1Cc1ccccc1` are 100% and 21.9%.
Regarding `CC(C)(C)OC(=O)Nc1ccc(N2C(=O)C(c3ccccc3)=C(c3ccccc3)C2=O)cc1`, the viability at 24 h, 20 µM in data set [1] is 97.1%. The compound also displayed an inhibition at 20 µM in data set [2] of 39.6%.
On the same counts, the results for `O=C1C(c2ccccc2)=C(c2ccccc2)C(=O)N1c1ccc(C(F)(F)F)cc1` are 99.4% and 12.4%.
